Assay results from ChEMBL document CHEMBL3044788, “α-(Substituted-phenoxyacetoxy)-α-heterocyclylmethylphosphonates: synthesis, herbicidal activity, inhibition on pyruvate dehydrogenase complex (PDHc), and application as postemergent herbicide against broadleaf weeds” (J Agric Food Chem, 2013).

Assays:
[1] = tested on: Echinochloa crus-galli; experiment: Herbicidal activity against 2 to 3 leaf stage Echinochloa crus-galli (barnyard grass) assessed as inhibition of plant growth at 450 g/ha in greenhouse by postemergence herbicidal activity assay; format: functional; conditions: Echinochloa crus-galli, post-emergence; read-out: GI
[2] = tested on: Amaranthus retroflexus; experiment: Herbicidal activity against 2 to 3 leaf stage Amaranthus retroflexus assessed as inhibition of plant growth at 150 g/ha in greenhouse by postemergence herbicidal activity assay; format: functional; conditions: post-emergence, read-out: GI
[3] = tested on: Brassica rapa subsp. oleifera; experiment: Herbicidal activity against Brassica rapa subsp. oleifera assessed as inhibition of rape root growth at 450 g/ha by pre-emergence herbicidal activity assay; format: functional; conditions: read-out: GI
[4] = tested on: Pisum sativum; experiment: Herbicidal activity against 2 to 3 leaf stage Pisum sativum assessed as inhibition of plant growth at 450 g/ha in greenhouse by postemergence herbicidal activity assay; format: functional; conditions: Lathyrus oleraceus, post-emergence; read-out: GI
[5] = tested on: Beta vulgaris; experiment: Herbicidal activity against Beta vulgaris assessed as relative growth inhibition at 300 g/ha in greenhouse by post-emergence herbicidal activity assay; format: functional; conditions: read-out: GI
[6] = tested on: Chenopodium album; experiment: Herbicidal activity against Chenopodium album assessed as relative growth inhibition at 600 g/ha in greenhouse by post-emergence herbicidal activity assay; format: functional; conditions: read-out: GI
[7] = tested on: Amaranthus spinosus; experiment: Herbicidal activity against Amaranthus spinosus assessed as relative growth inhibition at 900 g/ha in greenhouse by postemergence herbicidal activity assay; format: functional; conditions: post-emergence, read-out: GI
[8] = tested on: Amaranthus blitum; experiment: Herbicidal activity against Amaranthus blitum assessed as relative growth inhibition at 450 g/ha in greenhouse by post-emergence herbicidal activity assay; format: functional; conditions: read-out: GI
[9] = tested on: Chenopodium album; experiment: Herbicidal activity against Chenopodium album assessed as relative growth inhibition at 200 g/ha in greenhouse by post-emergence herbicidal activity assay; format: functional; conditions: read-out: GI
[10] = tested on: Polygonum aviculare; experiment: Herbicidal activity against Polygonum aviculare assessed as relative growth inhibition at 300 g/ha in greenhouse by post-emergence herbicidal activity assay; format: functional; conditions: read-out: GI
[11] = tested on: Eclipta prostrata; experiment: Herbicidal activity against two to three-leaf stage Eclipta prostrata assessed as inhibition of plant growth at 150 g/ha in greenhouse by post-emergence herbicidal activity assay; format: functional; conditions: read-out: GI
[12] = tested on: Zea mays; experiment: Herbicidal activity against Zea mays (maize) assessed as relative growth inhibition at 600 g/ha in greenhouse by postemergence herbicidal activity assay; format: organism-based; conditions: in vivo, other
[13] = tested on: Chenopodium album; experiment: Herbicidal activity against Chenopodium album assessed as relative growth inhibition at 300 g/ha in greenhouse by post-emergence herbicidal activity assay; format: functional; conditions: read-out: GI
[14] = tested on: Brassica juncea; experiment: Herbicidal activity against two to three-leaf stage Brassica juncea assessed as inhibition of plant growth at 450 g/ha in greenhouse by post-emergence herbicidal activity assay; format: functional; conditions: read-out: GI
[15] = tested on: Beta vulgaris; experiment: Herbicidal activity against Beta vulgaris assessed as relative growth inhibition at 900 g/ha in greenhouse by post-emergence herbicidal activity assay; format: functional; conditions: read-out: GI
[16] = tested on: Polygonum aviculare; experiment: Herbicidal activity against Polygonum aviculare assessed as relative growth inhibition at 900 g/ha in greenhouse by post-emergence herbicidal activity assay; format: functional; conditions: read-out: GI
[17] = Toxicity in percutaneously dosed Rattus norvegicus (rat); format: organism-based; conditions: in vivo, topical or ocular
[18] = tested on: Zea mays; experiment: Herbicidal activity against Zea mays (maize) assessed as relative growth inhibition at 900 g/ha in greenhouse by postemergence herbicidal activity assay; format: organism-based; conditions: in vivo, other
[19] = tested on: Polygonum aviculare; experiment: Herbicidal activity against Polygonum aviculare assessed as relative growth inhibition at 200 g/ha in greenhouse by post-emergence herbicidal activity assay; format: functional; conditions: read-out: GI
[20] = tested on: Amaranthus blitum; experiment: Herbicidal activity against Amaranthus blitum assessed as relative growth inhibition at 300 g/ha in greenhouse by post-emergence herbicidal activity assay; format: functional; conditions: read-out: GI
[21] = tested on: Beta vulgaris; experiment: Herbicidal activity against Beta vulgaris assessed as relative growth inhibition at 100 g/ha in greenhouse by post-emergence herbicidal activity assay; format: functional; conditions: read-out: GI
[22] = tested on: Brassica rapa subsp. oleifera; experiment: Herbicidal activity against Brassica rapa subsp. oleifera assessed as inhibition of rape root growth at 450 g/ha by postemergence herbicidal activity assay; format: functional; conditions: post-emergence, read-out: GI
[23] = tested on: Zea mays; experiment: Herbicidal activity against Zea mays (maize) assessed as relative growth inhibition at 200 g/ha in greenhouse by postemergence herbicidal activity assay; format: organism-based; conditions: in vivo, other
[24] = tested on: Oryza sativa; experiment: Herbicidal activity against Oryza sativa (rice) assessed as relative growth inhibition at 900 g/ha in greenhouse by postemergence herbicidal activity assay; format: organism-based; conditions: in vivo, other
[25] = tested on: Oryza sativa; experiment: Herbicidal activity against Oryza sativa (rice) assessed as relative growth inhibition at 600 g/ha in greenhouse by postemergence herbicidal activity assay; format: organism-based; conditions: in vivo, other
[26] = tested on: Chenopodium album; experiment: Herbicidal activity against Chenopodium album assessed as relative growth inhibition at 900 g/ha in greenhouse by post-emergence herbicidal activity assay; format: functional; conditions: read-out: GI
[27] = tested on: Amaranthus spinosus; experiment: Herbicidal activity against Amaranthus spinosus assessed as relative growth inhibition at 600 g/ha in greenhouse by postemergence herbicidal activity assay; format: functional; conditions: post-emergence, read-out: GI
[28] = tested on: Amaranthus blitum; experiment: Herbicidal activity against Amaranthus blitum assessed as relative growth inhibition at 900 g/ha in greenhouse by post-emergence herbicidal activity assay; format: functional; conditions: read-out: GI
[29] = tested on: Amaranthus spinosus; experiment: Herbicidal activity against Amaranthus spinosus assessed as relative growth inhibition at 450 g/ha in greenhouse by postemergence herbicidal activity assay; format: functional; conditions: post-emergence, read-out: GI
[30] = tested on: Oryza sativa; experiment: Herbicidal activity against Oryza sativa (rice) assessed as relative growth inhibition at 300 g/ha in greenhouse by postemergence herbicidal activity assay; format: organism-based; conditions: in vivo, other
[31] = tested on: Amaranthus blitum; experiment: Herbicidal activity against Amaranthus blitum assessed as relative growth inhibition at 200 g/ha in greenhouse by post-emergence herbicidal activity assay; format: functional; conditions: read-out: GI
[32] = tested on: Beta vulgaris; experiment: Herbicidal activity against Beta vulgaris assessed as relative growth inhibition at 1200 g/ha in greenhouse by post-emergence herbicidal activity assay; format: functional; conditions: read-out: GI

COP(=O)(OC)C(OC(=O)COc1ccc(Cl)cc1Cl)c1ccco1 (configuration not stated)
inhibition of growth at 450 g/ha [1]: 25%
inhibition of growth at 150 g/ha [2]: 95%
inhibition of growth at 450 g/ha [3]: 94%
inhibition of growth at 450 g/ha [4]: 90%
inhibition of growth at 300 g/ha [5]: 98%
inhibition of growth at 600 g/ha [6]: 100%
inhibition of growth at 900 g/ha [7]: 100%
inhibition of growth at 450 g/ha [8]: 100%
inhibition of growth at 200 g/ha [9]: 100%
inhibition of growth at 300 g/ha [10]: 91%
inhibition of growth at 150 g/ha [11]: 90%
growth inhibition (GI) [12]: 0%
inhibition of growth at 300 g/ha [13]: 100%
inhibition of growth at 450 g/ha [14]: 96.5%
inhibition of growth at 900 g/ha [15]: 100%
inhibition of growth at 900 g/ha [16]: 100%
LD50 [17]: > 2000 mg/kg
growth inhibition (GI) [18]: 0%
inhibition of growth at 200 g/ha [19]: 85%
inhibition of growth at 300 g/ha [20]: 100%
inhibition of growth at 100 g/ha [21]: 80%
inhibition of growth at 450 g/ha [22]: 92%
growth inhibition (GI) [23]: 0%
growth inhibition (GI) [24]: 0%
growth inhibition (GI) [25]: 0%
inhibition of growth at 900 g/ha [26]: 100%
inhibition of growth at 600 g/ha [27]: 100%
inhibition of growth at 900 g/ha [28]: 100%
inhibition of growth at 450 g/ha [29]: 100%
growth inhibition (GI) [30]: 0%
inhibition of growth at 200 g/ha [31]: 100%
inhibition of growth at 1200 g/ha [32]: 100%
